Assay results taken from patent US12686680B2, “Substituted pyrazolo[1,5-α]pyrimidines as CRF receptor antagonists” (Neurocrine Biosciences, Inc., priority 2019, dated 2026).
pKi: −log10 of the molar value.

Assays:
[1] = Solubility determination of solid forms of Compound 1 in solvents (Example 52); format: physicochemical
From the text: X-Ray Powder diffraction (XRPD), differential scanning calorimetry (DSC), thermal gravimetric analysis (TGA), and UV-Metric/pH-Metric Titration (SiriusT3) were used to characterize Form I of Compound 1. UPLC was used to evaluate solubility of each material in various vehicles.

CRF1 receptor = target: T1, CRF1 receptor (Homo sapiens, UniProt P34998); experiment: CRF1 receptor binding kinetics (association/dissociation rate constants, method of Fleck et al.); settings: for pKi: Ki=k−1/k1, read-out: Kinetic Ki; for k1: association rate constant; for k^−1: dissociation rate constant
T1 sequence (P34998 24-415): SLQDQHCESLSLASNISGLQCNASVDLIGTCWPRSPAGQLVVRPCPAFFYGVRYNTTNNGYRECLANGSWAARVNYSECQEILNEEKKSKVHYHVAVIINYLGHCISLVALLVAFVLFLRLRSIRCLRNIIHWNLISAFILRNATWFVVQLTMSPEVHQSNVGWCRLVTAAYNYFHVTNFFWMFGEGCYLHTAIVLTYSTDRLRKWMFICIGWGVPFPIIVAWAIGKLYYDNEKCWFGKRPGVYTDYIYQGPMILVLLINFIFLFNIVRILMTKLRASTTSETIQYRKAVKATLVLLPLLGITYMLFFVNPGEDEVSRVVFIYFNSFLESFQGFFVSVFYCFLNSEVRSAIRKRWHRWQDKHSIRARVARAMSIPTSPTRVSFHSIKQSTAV
Experimental: The association (k1) and dissociation (k−1) rate constants defining binding of the Compounds to the CRF1 receptor were determined by the method described in Fleck et al. (J. Pharmacology and Experimental Therapeutics, 341(2):518-531, 2012) (hereinafter “Fleck et al.” and incorporated by reference in its entirety). As described therein, the activity of a CRF1 receptor antagonist can be expressed as the kinetically derived affinity (Ki) calculated from the association (k1) and dissociation (k−1) rate constants by the following equation: Ki=k−1/k1
The Compounds listed in Table 5 were evaluated according to these procedures, and the kinetic Ki was determined and found to be as follows: […]

In the case of `CCCN(Cc1ccc(-c2csc(N(C)C)n2)cc1)c1cc(C)nc2c(-c3cnc(N(C)C)cc3C)c(C)nn12` [Compound 1-4 (Maleate), 5-{7-[({4-[2-(dimethylamino)-1,3-thiazol-4-yl]phenyl}methyl)(propyl)amino]-2,5-dimethylpyrazolo[1,5-a]pyrimidin-3-yl}-N,N,4-trimethylpyridin-2-amine], the “Measured pH” value ([1]; 50 mM BB pH 9) was “pH 4.3”, the Solubility ([1]; 50 mM BB pH 9) was “Below” and the “Measured pH” value ([1]; 50 mM CB pH 3) was “pH 3.2”. The Solubility ([1]; 50 mM CB pH 3) was 0.3 mg/mL FB, the “Measured pH” value ([1]; 50 mM CB pH 4) was “pH 3.9” and the Solubility ([1]; 50 mM CB pH 4) was 0 mg/mL FB. For the same compound, the “Measured pH” value ([1]; 50 mM CB pH 6) was “pH 5.3”, the Solubility ([1]; 50 mM CB pH 6) was “Below” and the “Measured pH” value ([1]; 50 mM PB pH 2) was “pH 2.5”. For the same compound, the Solubility ([1]; 50 mM PB pH 2) was 3.9 mg/mL FB, the “Measured pH” value ([1]; 50 mM PB pH 8) was “pH 6.2” and the Solubility ([1]; 50 mM PB pH 8) was “Below”. For the same compound, the “Measured pH” value ([1]; 100% H2O) was “pH 3.4”, the Solubility ([1]; 100% H2O) was 0 mg/mL FB and the Solubility ([1]; ACN) was 3.6 mg/mL FB. It also gave a Solubility ([1]; Acetone) of 4.1 mg/mL FB, a Solubility ([1]; DMSO) greater than 2.5 mg/mL FB and a Solubility ([1]; EtOAc) of 1.2 mg/mL FB. For the same compound, the Solubility ([1]; EtOH) was 6.5 mg/mL FB, the Solubility ([1]; IPA) was 1.9 mg/mL FB and the Solubility ([1]; MeOH) was 27.1 mg/mL FB.
In the case of `CCCN(Cc1ccc(-c2csc(N(C)C)n2)cc1)c1cc(C)nc2c(-c3cnc(N(C)C)cc3C)c(C)nn12` [Compound 1-5 (Mesylate), 5-{7-[({4-[2-(dimethylamino)-1,3-thiazol-4-yl]phenyl}methyl)(propyl)amino]-2,5-dimethylpyrazolo[1,5-a]pyrimidin-3-yl}-N,N,4-trimethylpyridin-2-amine], the “Measured pH” value ([1]; 50 mM BB pH 9) was “pH 3.2”, the Solubility ([1]; 50 mM BB pH 9) was 0.2 mg/mL FB and the “Measured pH” value ([1]; 50 mM CB pH 3) was “pH 3.4”. For the same compound, the Solubility ([1]; 50 mM CB pH 3) was 1.0 mg/mL FB, the “Measured pH” value ([1]; 50 mM CB pH 4) was “pH 4.0” and the Solubility ([1]; 50 mM CB pH 4) was 0.1 mg/mL FB. For the same compound, the “Measured pH” value ([1]; 50 mM CB pH 6) was “pH 5.1”, the Solubility ([1]; 50 mM CB pH 6) was 0 mg/mL FB and the “Measured pH” value ([1]; 50 mM PB pH 2) was “pH 3.0”. For the same compound, the Solubility ([1]; 50 mM PB pH 2) was 4.7 mg/mL FB, the “Measured pH” value ([1]; 50 mM PB pH 8) was “pH 6.7” and the Solubility ([1]; 50 mM PB pH 8) was 0 mg/mL FB. For the same compound, the “Measured pH” value ([1]; 100% H2O) was “pH 3.5”, the Solubility ([1]; 100% H2O) was 0.8 mg/mL FB and the Solubility ([1]; ACN) was 3.1 mg/mL FB. For the same compound, the Solubility ([1]; Acetone) was 1.0 mg/mL FB, the Solubility ([1]; DMSO) was greater than 2.1 mg/mL FB and the Solubility ([1]; EtOAc) was 0.6 mg/mL FB. The Solubility ([1]; EtOH) was 16.6 mg/mL FB, the Solubility ([1]; IPA) was 2.3 mg/mL FB and the Solubility ([1]; MeOH) was 134.4 mg/mL FB.
For `CCCN(Cc1ccc(-c2cccnc2)cc1)c1cc(C)nc2c(-c3cnc(N(C)C)cc3C)c(C)nn12` [Compound 2, 5-{2,5-dimethyl-7-[propyl({[4-(pyridin-3-yl)phenyl]methyl})amino]pyrazolo[1,5-a]pyrimidin-3-yl}-N,N,4-trimethylpyridin-2-amine], the pKi (CRF1 receptor) was greater than 9.72, the k1 (CRF1 receptor) was 5.3 ± 0.78 10^6M^−1min^−1 and the “k^−1” value (CRF1 receptor) was less than 0.001 min⁻¹.
In the case of `CCCN(Cc1ccc(-c2ccccn2)cc1)c1cc(C)nc2c(-c3cnc(N(C)C)cc3C)c(C)nn12` [Compound 3, 5-{2,5-dimethyl-7-[propyl({[4-(pyridin-2-yl)phenyl]methyl})amino]pyrazolo[1,5-a]pyrimidin-3-yl}-N,N,4-trimethylpyridin-2-amine], the pKi (CRF1 receptor) was greater than 9.44, the k1 (CRF1 receptor) was 2.9 ± 0.92 10^6M^−1min^−1 and the “k^−1” value (CRF1 receptor) was less than 0.001 min⁻¹.
For `CCCN(Cc1ccc(-c2ccccc2)cc1)c1cc(C)nc2c(-c3cnc(N(C)C)cc3C)c(C)nn12` [Compound 8, 5-(2,5-dimethyl-7-{[(4-phenylphenyl)methyl](propyl)amino}pyrazolo[1,5-a]pyrimidin-3-yl)-N,N,4-trimethylpyridin-2-amine], the pKi (CRF1 receptor) was greater than 9.92, the k1 (CRF1 receptor) was 9.1 ± 4.1 10^6M^−1min^−1 and the “k^−1” value (CRF1 receptor) was less than 0.001 min⁻¹.
